Reference: patent publication US20240207263A1, “SELECTIVE MODULATORS OF ATAXIA TELA[…] (ATM) KINASE AND USES THEREOF” (priority 2021, published 2024)
Read-outs that look alike come from different tables or passages of the source.

Tests used:
aldehyde oxidase (AO) [1] = molecular target: T1, aldehyde oxidase (AO) (Homo sapiens (Human), UniProt Q06278); experiment: in vitro
Experimental: All calculations were carried out using Microsoft Excel. Peak areas were determined from extracted ion chromatograms. The slope value, k, was determined by linear regression of the natural logarithm of the remaining percentage of the parent drug vs. incubation time curve.

ATM = ATM (Homo sapiens (Human), UniProt Q13315); experiment: biochemical; format: biochemical; conditions: read-out: ATM IC50
Text: Assay a): ATM Biochemical Potency
Data was collected by Caliper.

PIK3Cγ (pp110γ) = PIK3Cγ (pp110γ) (Homo sapiens (Human), UniProt P48736); experiment: PI3K biochemical potency assay (Assay c), PIK3Cγ
Experimental: Assay c): PI3K Biochemical Potency
(§1) 2.5 μl of kinase solution was added to each well of the 384-well assay plate, which contains 2.5 μl of compounds with serially diluted concentration. 2× substrate solution was prepared with PIP2 substrate and ATP in 1× kinase reaction buffer at 2-fold of the final concentration of each reagent in the assay. 5 μl of substrate solution was added to each well of the assay plate to start reaction. The assay plate was incubated at room temperature for 1 hour. 5 μl reaction mix was transferred to a new 384 well plate. 5 μl of ADP-Glo reagent (Promega, Cat. No. v9102/3) was added to each well of the new assay plate to stop the reaction. The plate was shaken slowly and equilibrated for 40 minutes. 10 μl kinase detection reagents were added to each well, which was equilibrated for 60 minutes before read on a plate reader (Envision) for luminescence.

[2] = system: phosp-KAP1 in MCF-7 cells; experiment: phosp-KAP1 MCF-7 cellular potency assay (Assay f); format: cell-based; conditions: Homo sapiens, MCF7; MCF-7 cells, etoposide; read-out: Etoposide MCF-7 cellular IC50
Experimental: Assay f): phosp-KAP1 MCF-7 Cellular Potency
MCF-7 cells were seeded to a 384-well cell-culture plate, 25 μl/well which were incubated at 37° C. and 5% CO2 for 24 hr. Test compounds were added to the 384-well plates. Etoposide at final concentration of 100 μM was then added to each well except Vehicle control wells, which were incubated at 37° C. and 5% CO2 for 1 hour. After medium removal, cells were fixed by the addition of 25 μl/well of 8% paraformaldehyde in PBSA and incubated for 20 minutes at room temperature. After the plates were rinsed 3 times with PBSA, 50 ul permeabilization buffer (0.1% Triton X-100 in PBS) was added and the plates were incubated for 20 minutes at room temperature. After the plates were rinsed with PBSA, block the cells by adding 50 μl of Odyssey Blocking Buffer in 384-well plate and then incubate for 1.5 hours at room temperature. Remove blocking buffer by Plate washer (BioTek ELx405 select CW). […] The plates were rinsed 5 times with PBST (0.1% Tween-20 in PBS).
• 1) Fluorescence intensity (FI) was detected for each well. • 2) % inhibition is calculated as follow:
[formula] • FIpositive: The average FI for the positive controls across the plate. • FIvehicle: The average FI for negative controls across the plate. • 3) Calculate IC50 and Plot effect-dose curve of compounds: • Calculate IC50 by fitting % inhibition values and log of compound concentrations to nonlinear regression (dose response−variable slope) with Graphpad prism 6.0.
Y=Bottom+(Top−Bottom)/(1+10^((Log IC50−X)*HillSlope)) • X: log of compounds concentration; Y: % inhibition

DNA-PK = DNA-PK (Homo sapiens (Human), UniProt P78527); experiment: DNA-PK biochemical assay (Assay e)
Experimental: Assay e): DNA-PK Biochemical Assay
The final concentration: Substrate 0.2 ug/ml and ATP 20 uM. […] The plate was equilibrated for 2 hr at room temperature.

PI3Kα (p110α/p85a) = PI3Kα (p110α/p85a) (Homo sapiens (Human), UniProt P42336); experiment: PI3K biochemical potency assay (Assay c), PI3Kα
Experimental: Assay c): PI3K Biochemical Potency
as §1

mTOR = mTOR (Homo sapiens (Human), UniProt P42345); experiment: mTOR biochemical potency assay (Assay d)
Experimental: Assay d): mTOR Biochemical Potency
Solution of mTOR enzymes (Millipore, Cat. No. 14-770) was prepared in 1× kinase buffer at 4-fold of the final concentration (final concentration: 6 nM) in the assay. 2.5 μl of kinase solution was added to each well of the 384-well assay plate, which contains 2.5 μl of compounds with serially diluted concentration. 2× substrate solution was prepared with ULight-4E-BP1 (Thr37/46) Peptide (PE, Cat. No. TRF0128-M) and ATP in 1× kinase reaction buffer at 2-fold of the final concentration of each reagent in the assay. 5 μl of substrate solution was added to each well of the assay plate to start reaction. The assay plate was incubated at room temperature for 30 minutes. Detection solution of kinase quench buffer (EDTA) and Eu-anti-phospho-4E-BP1 antibody (Thr37/46) (PE, Cat. No. TRF0216-M) were prepared at 2-fold the desired final concentrations of each reagent in Lance detection buffer. 10 μl of detection solution buffer was added to each well of the assay plate.

PIK3Cδ = PIK3Cδ (Homo sapiens (Human), UniProt O00329); experiment: PI3K biochemical potency assay (Assay c), PIK3Cδ
Experimental: Assay c): PI3K Biochemical Potency
as §1

ATR = ATR (Homo sapiens (Human), UniProt Q13535); experiment: ATR biochemical potency assay (Assay b)
Experimental: Assay b): ATR Biochemical Potency
The plate was incubated at room temperature for 10 minutes. 2× peptide solutions were prepared with FAM-labeled peptide and ATP in the 1× kinase base buffer. […] 40 μl of stop buffer was added to stop reaction. Data were collected by Caliper.

[3] = molecular target: ATM (phospho-ATM Ser1981) in SN38 treated HT-29 cells (Homo sapiens (Human), UniProt Q13315); experiment: cell-based; conditions: HT-29 cells, SN-38; read-out: SN-38 HT-29 cellular IC50
Experimental: Assay g): ATM SN-38 HT-29 Cellular Potency
SN38 causes single strand DNA breaks (SSBs) which are converted to double strand breaks (DSBs) during replication. ATM plays role of repairing DSBs. Inhibition of ATM was evaluated in SN38 treated HT-29 cells (ATCC, Cat #HTB-38) by high-Content Imaging System
The graphical views were then generated using Prism 7.0 (Graphpad).

PIK3Cβ (p110β) = PIK3Cβ (p110β) (Homo sapiens (Human), UniProt P42338); experiment: PI3K biochemical potency assay (Assay c), PIK3Cβ
Experimental: Assay c): PI3K Biochemical Potency
as §1

aldehyde oxidase (AO) [4] = molecular target: T1, aldehyde oxidase (AO); conditions: reference compounds of the human liver cytosolic system; cited from earlier work
[5] = cited from earlier work; for clearance in humans: Zientek et al. 2010

PIK3Cδ, sequence (O00329 whole entry, looked up): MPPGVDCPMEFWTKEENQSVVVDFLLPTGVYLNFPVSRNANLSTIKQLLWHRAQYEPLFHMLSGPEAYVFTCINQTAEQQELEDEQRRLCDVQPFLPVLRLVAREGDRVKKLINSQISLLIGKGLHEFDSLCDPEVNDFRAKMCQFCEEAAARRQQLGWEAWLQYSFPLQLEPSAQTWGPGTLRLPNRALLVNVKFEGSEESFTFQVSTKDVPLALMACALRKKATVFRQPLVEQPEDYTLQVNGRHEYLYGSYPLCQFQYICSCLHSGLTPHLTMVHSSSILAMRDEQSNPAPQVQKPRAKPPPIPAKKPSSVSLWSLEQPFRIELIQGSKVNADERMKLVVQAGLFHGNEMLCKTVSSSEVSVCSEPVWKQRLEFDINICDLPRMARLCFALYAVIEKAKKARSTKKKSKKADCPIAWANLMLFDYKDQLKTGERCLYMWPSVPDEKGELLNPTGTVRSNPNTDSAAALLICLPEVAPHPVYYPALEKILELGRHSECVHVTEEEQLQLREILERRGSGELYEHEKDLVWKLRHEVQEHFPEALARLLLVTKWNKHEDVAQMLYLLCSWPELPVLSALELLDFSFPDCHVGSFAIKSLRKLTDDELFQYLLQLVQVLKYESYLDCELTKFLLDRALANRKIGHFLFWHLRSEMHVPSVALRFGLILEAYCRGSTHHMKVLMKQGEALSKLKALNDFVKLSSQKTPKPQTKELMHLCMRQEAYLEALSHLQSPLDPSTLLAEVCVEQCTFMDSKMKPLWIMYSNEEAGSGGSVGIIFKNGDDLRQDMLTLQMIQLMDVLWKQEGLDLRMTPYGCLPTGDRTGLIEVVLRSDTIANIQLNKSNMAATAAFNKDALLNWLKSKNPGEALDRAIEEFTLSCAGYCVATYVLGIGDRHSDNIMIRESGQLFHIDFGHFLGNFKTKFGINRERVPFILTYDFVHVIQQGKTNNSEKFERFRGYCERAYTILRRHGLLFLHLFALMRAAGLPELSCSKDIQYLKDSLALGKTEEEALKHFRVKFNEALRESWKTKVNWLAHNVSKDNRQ
PIK3Cδ, sequence (P27986 whole entry partner, looked up): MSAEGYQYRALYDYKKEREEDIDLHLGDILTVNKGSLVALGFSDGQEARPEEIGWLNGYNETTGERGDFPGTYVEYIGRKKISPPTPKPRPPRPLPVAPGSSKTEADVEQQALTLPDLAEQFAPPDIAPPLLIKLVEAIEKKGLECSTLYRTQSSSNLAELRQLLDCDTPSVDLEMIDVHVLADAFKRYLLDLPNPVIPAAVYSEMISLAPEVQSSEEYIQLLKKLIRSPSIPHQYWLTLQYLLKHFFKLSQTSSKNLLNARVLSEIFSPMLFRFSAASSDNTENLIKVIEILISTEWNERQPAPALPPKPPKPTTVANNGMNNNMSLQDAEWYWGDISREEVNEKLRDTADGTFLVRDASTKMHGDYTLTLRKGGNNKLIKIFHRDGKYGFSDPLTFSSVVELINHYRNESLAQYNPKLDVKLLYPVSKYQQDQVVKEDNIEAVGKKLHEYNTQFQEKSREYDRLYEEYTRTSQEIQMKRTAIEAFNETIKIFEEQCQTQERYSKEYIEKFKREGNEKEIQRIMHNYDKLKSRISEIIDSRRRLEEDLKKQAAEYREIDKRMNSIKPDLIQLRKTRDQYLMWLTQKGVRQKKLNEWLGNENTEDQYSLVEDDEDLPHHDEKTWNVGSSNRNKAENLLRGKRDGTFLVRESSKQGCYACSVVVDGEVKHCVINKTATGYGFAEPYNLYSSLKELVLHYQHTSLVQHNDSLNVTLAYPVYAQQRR
PIK3Cβ (p110β), sequence (P42338 whole entry, looked up): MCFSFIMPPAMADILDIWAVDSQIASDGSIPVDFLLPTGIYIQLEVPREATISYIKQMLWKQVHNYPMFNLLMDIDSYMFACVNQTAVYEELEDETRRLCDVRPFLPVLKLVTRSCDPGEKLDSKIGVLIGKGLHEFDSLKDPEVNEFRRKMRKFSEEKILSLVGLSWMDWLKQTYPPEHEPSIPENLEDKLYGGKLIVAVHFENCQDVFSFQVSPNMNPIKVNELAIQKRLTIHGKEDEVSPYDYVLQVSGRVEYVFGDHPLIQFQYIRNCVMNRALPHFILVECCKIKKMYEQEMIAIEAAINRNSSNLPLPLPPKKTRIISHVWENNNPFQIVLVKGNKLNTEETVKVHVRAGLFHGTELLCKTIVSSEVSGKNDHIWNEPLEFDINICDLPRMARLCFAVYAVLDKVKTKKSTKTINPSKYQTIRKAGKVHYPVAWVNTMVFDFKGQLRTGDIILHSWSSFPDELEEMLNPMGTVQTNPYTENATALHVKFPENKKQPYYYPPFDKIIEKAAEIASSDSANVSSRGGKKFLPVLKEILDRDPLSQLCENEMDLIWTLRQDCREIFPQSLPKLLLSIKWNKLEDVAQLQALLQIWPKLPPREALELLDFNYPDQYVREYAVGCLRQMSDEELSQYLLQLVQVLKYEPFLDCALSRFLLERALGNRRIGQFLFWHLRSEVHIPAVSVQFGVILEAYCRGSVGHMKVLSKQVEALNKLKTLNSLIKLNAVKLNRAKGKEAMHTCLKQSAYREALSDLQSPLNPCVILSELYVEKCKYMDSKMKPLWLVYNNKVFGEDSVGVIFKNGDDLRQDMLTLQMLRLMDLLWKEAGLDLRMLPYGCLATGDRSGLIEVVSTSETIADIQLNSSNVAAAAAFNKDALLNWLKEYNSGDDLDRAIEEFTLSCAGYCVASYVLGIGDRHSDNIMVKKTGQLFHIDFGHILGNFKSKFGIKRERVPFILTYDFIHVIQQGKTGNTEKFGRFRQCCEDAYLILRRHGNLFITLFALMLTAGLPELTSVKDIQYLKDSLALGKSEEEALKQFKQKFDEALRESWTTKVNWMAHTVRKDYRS
PIK3Cβ (p110β), sequence (P27986 whole entry partner, looked up): as the sequence (P27986 whole entry partner, looked up) above
PIK3Cγ (pp110γ), sequence (P48736 whole entry): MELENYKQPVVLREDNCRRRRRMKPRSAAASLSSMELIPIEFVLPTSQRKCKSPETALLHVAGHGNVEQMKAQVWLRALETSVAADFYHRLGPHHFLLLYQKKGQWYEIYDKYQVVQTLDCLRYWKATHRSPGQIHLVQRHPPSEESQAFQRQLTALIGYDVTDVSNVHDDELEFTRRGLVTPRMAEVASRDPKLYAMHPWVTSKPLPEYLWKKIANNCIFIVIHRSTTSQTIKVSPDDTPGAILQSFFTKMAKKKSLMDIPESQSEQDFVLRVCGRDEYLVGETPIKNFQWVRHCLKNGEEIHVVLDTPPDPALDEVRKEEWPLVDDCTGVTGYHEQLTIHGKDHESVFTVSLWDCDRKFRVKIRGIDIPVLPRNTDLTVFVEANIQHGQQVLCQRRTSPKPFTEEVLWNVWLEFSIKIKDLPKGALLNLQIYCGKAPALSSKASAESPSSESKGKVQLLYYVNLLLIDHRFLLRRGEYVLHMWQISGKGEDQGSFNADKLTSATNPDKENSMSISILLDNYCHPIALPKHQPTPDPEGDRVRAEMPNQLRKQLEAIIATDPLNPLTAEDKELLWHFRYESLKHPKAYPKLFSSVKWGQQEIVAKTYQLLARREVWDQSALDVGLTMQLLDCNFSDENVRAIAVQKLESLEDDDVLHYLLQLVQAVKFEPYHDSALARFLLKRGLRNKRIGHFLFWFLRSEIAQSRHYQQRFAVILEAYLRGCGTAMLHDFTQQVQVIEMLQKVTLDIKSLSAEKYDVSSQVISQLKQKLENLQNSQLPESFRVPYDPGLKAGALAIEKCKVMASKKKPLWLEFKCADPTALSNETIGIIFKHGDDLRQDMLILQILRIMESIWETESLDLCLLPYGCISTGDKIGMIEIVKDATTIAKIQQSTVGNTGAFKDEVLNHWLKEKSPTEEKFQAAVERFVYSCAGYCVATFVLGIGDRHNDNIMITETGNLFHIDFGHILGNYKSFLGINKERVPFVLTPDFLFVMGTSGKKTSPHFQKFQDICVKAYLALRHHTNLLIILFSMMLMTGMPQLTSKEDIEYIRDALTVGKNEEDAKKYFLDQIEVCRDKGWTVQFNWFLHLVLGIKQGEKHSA
PI3Kα (p110α/p85a), sequence (P42336 whole entry, looked up): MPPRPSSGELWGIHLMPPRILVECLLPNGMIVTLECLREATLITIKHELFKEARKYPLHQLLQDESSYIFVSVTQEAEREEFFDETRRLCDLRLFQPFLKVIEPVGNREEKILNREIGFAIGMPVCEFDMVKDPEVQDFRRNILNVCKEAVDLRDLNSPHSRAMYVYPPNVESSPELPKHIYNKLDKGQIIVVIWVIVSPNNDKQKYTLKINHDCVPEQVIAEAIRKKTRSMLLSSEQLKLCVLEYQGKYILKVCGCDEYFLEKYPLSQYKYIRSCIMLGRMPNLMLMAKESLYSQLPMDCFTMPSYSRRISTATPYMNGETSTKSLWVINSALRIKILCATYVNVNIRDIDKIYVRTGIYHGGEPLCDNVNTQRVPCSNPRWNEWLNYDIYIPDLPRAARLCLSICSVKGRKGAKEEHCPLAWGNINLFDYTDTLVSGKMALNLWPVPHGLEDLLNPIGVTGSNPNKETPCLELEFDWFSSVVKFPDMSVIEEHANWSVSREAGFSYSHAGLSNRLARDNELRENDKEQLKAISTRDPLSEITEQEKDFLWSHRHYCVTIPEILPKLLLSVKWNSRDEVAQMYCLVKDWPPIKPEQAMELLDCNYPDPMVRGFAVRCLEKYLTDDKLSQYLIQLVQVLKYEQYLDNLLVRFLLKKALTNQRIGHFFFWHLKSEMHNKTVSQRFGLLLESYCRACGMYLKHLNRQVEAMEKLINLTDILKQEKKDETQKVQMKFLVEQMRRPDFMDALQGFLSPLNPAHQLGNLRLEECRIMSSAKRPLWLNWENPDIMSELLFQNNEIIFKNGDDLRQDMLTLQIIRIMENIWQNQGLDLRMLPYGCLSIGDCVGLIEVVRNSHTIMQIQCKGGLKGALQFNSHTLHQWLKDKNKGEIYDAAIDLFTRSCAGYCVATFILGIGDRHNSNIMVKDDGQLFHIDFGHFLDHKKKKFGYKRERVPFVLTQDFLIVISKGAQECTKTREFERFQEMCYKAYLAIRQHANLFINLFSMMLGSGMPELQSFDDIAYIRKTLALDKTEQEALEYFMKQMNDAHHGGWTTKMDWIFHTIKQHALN
PI3Kα (p110α/p85a), sequence (P27986 whole entry partner, looked up): as the sequence (P27986 whole entry partner, looked up) above

In the case of `CC(C)n1c(=O)n(C)c2cnc3cc(F)c(-c4ccc(OCCCN5CCCCC5)nc4)cc3c21` [AZD1390], the AO substrate classification (aldehyde oxidase (AO) [1]; human liver cytosol) is reported as “strong AO substrate”.
In the case of `CC(C)n1c(=O)n(C)c2nnc3ccc(-c4ccc(COCCN5CCC(C)(C)CC5)nc4)cc3c21` [Example 31, 8-(6-((2-(4,4-dimethylpiperidin-1-yl)ethoxy)methyl)pyridin-3-yl)-1-isopropyl-3-methyl-1H-imidazo[4,5-c]cinnolin-2(3H)-one], the IC50 (ATM) is reported as 11 nM, the IC50 (PIK3Cγ (pp110γ); read-out: PI3Kγ IC50) is reported as greater than 10 µM and the IC50 [2] is reported as 16 nM. The IC50 (DNA-PK) was greater than 10 µM, the IC50 (PI3Kα (p110α/p85a); read-out: PI3Kα IC50) was greater than 10 µM and the IC50 (mTOR; read-out: mTor IC50) was greater than 10 µM. The IC50 (PIK3Cδ; read-out: PI3Kδ IC50) was greater than 10 µM, the IC50 (ATR) was greater than 10 µM and the IC50 [3] was 29 nM. For the same compound, the IC50 (PIK3Cβ (p110β); read-out: PI3Kβ IC50) was greater than 10 µM.
Work on `COC1CCN(CCO[C@H](C)c2ccc(-c3ccc4nnc5c(c4c3)n(C(C)C)c(=O)n5C)cn2)CC1` [Example 56, (R)-1-isopropyl-8-(6-(1-(2-(4-methoxypiperidin-1-yl)ethoxy)ethyl)pyridin-3-yl)-3-methyl-1H-imidazo[4,5-c]cinnolin-2(3H)-one] yielded an IC50 (ATM) of 3.2 nM, an IC50 (PIK3Cγ (pp110γ); read-out: PI3Kγ IC50) greater than 10 µM and an IC50 (DNA-PK) greater than 10 µM. It also gave an IC50 (PI3Kα (p110α/p85a); read-out: PI3Kα IC50) greater than 10 µM, an IC50 (mTOR; read-out: mTor IC50) greater than 10 µM and an IC50 (PIK3Cδ; read-out: PI3Kδ IC50) greater than 10 µM. It also gave an IC50 (ATR) greater than 10 µM and an IC50 (PIK3Cβ (p110β); read-out: PI3Kβ IC50) greater than 10 µM.
`CC(C)n1c(=O)n(C)c2nnc3ccc(-c4ccc([C@@H](C)OCCN5CC[C@@H](OC6CC6)C5)nc4)cc3c21` [Example 76, 8-(6-((R)-1-(2-((R)-3-cyclopropoxypyrrolidin-1-yl)ethoxy)ethyl)pyridin-3-yl)-1-isopropyl-3-methyl-1H-imidazo[4,5-c]cinnolin-2(3H)-one] showed an IC50 (PIK3Cγ (pp110γ)) greater than 10 µM, an IC50 (DNA-PK) greater than 10 µM and an IC50 (PI3Kα (p110α/p85a)) greater than 10 µM. For the same compound, the IC50 (mTOR) was greater than 10 µM, the IC50 (PIK3Cδ) was greater than 10 µM and the IC50 (ATR) was greater than 10 µM. The IC50 (PIK3Cβ (p110β)) was greater than 10 µM.
For `CC(C)n1c(=O)n(C)c2nnc3ccc(-c4ccc([C@@H](C)OCCN5CC[C@@H](C)C5)nc4)cc3c21` [Example 77, 1-isopropyl-3-methyl-8-(6-((R)-1-(2-((R)-3-methylpyrrolidin-1-yl)ethoxy)ethyl)pyridin-3-yl)-1H-imidazo[4,5-c]cinnolin-2(3H)-one], the IC50 (ATM) was 4.8 nM, the IC50 (PIK3Cγ (pp110γ); read-out: PI3Kγ IC50) was greater than 10 µM and the IC50 (DNA-PK) was greater than 10 µM. The IC50 (PI3Kα (p110α/p85a); read-out: PI3Kα IC50) was greater than 10 µM, the IC50 (mTOR; read-out: mTor IC50) was greater than 10 µM and the IC50 (PIK3Cδ; read-out: PI3Kδ IC50) was greater than 10 µM. The IC50 (ATR) was greater than 10 µM and the IC50 (PIK3Cβ (p110β); read-out: PI3Kβ IC50) was greater than 10 µM.
`CO[C@H]1C[C@H](n2c(=O)n(C)c3nnc4ccc(-c5ccc([C@@H](C)OCCN6CCCC6)nc5)cc4c32)C1` [Example 162, 1-(trans-3-methoxycyclobutyl)-3-methyl-8-(6-((R)-1-(2-(pyrrolidin-1-yl)ethoxy)ethyl)pyridin-3-yl)-1,3-dihydro-2H-imidazo[4,5-c]cinnolin-2-one] showed an IC50 (ATM) of 7 nM, an IC50 (PIK3Cγ (pp110γ); read-out: PI3Kγ IC50) greater than 10 µM and an IC50 (DNA-PK) greater than 10 µM. It also gave an IC50 (PI3Kα (p110α/p85a); read-out: PI3Kα IC50) greater than 10 µM, an IC50 (mTOR; read-out: mTor IC50) greater than 10 µM and an IC50 (PIK3Cδ; read-out: PI3Kδ IC50) greater than 10 µM. The IC50 (ATR) was greater than 10 µM, the IC50 [3] was 5.5 nM and the IC50 (PIK3Cβ (p110β); read-out: PI3Kβ IC50) was greater than 10 µM.
With `CC(C)n1c(=O)n(C)c2nnc3ccc(-c4ccc([C@H](OCCN5CCCC5)C(F)(F)F)nc4)cc3c21` [Example 184, (S)-1-isopropyl-3-methyl-8-(6-(2,2,2-trifluoro-1-(2-(pyrrolidin-1-yl)ethoxy)ethyl)pyridin-3-yl)-1,3-dihydro-2H-imidazo[4,5-c]cinnolin-2-one] the IC50 (ATM) was 2.8 nM, the IC50 (PIK3Cγ (pp110γ); read-out: PI3Kγ IC50) was greater than 10 µM and the IC50 (DNA-PK) was greater than 10 µM. The IC50 (PI3Kα (p110α/p85a); read-out: PI3Kα IC50) was greater than 10 µM, the IC50 (mTOR; read-out: mTor IC50) was greater than 10 µM and the IC50 (PIK3Cδ; read-out: PI3Kδ IC50) was greater than 10 µM. It also gave an IC50 (ATR) greater than 10 µM and an IC50 (PIK3Cβ (p110β); read-out: PI3Kβ IC50) greater than 10 µM.
With `CC(C)n1c(=O)n(C)c2nnc3ccc(-c4ccc([C@@H](OCCN5CCCC5)C(F)(F)F)nc4)cc3c21` [Example 185, (R)-1-isopropyl-3-methyl-8-(6-(2,2,2-trifluoro-1-(2-(pyrrolidin-1-yl)ethoxy)ethyl)pyridin-3-yl)-1,3-dihydro-2H-imidazo[4,5-c]cinnolin-2-one] the IC50 (ATM) was 292 nM, the IC50 (PIK3Cγ (pp110γ); read-out: PI3Kγ IC50) was greater than 10 µM and the IC50 (DNA-PK) was greater than 10 µM. The IC50 (PI3Kα (p110α/p85a); read-out: PI3Kα IC50) was greater than 10 µM, the IC50 (mTOR; read-out: mTor IC50) was greater than 10 µM and the IC50 (PIK3Cδ; read-out: PI3Kδ IC50) was greater than 10 µM. The IC50 (ATR) was greater than 10 µM and the IC50 (PIK3Cβ (p110β); read-out: PI3Kβ IC50) was greater than 10 µM.
For `OCCn1cc(-c2cnc3nnn(Cc4ccc5ncccc5c4)c3n2)cn1` [PF-04217903, 2-[4-[3-(quinolin-6-ylmethyl)triazolo[4,5-b]pyrazin-5-yl]pyrazol-1-yl]ethanol], the “AO substrate classification (reported)” value (aldehyde oxidase (AO) [4]) is given as “weak AO substrate”.
For `CCN(C(C)=O)c1cccc(-c2ccnc3c(C#N)cnn23)c1` [Reference compound 4, Zaleplon], the clearance in humans [5] is listed as 16 mL/min/kg, the “clearance in humans corresponding to liver blood flow” value [5] is listed as roughly 80 % liver blood flow and the microsomal CLint (aldehyde oxidase (AO) [1]; human, cytosol) is listed as 0.893 µL/min/mg.
For `OCCn1cc(-c2cnc3nnn(Cc4ccc5ncccc5c4)c3n2)cn1` [Reference compound 5, PF-04217903], the clearance in humans [5] is given as 6 mL/min/kg and the “clearance in humans corresponding to liver blood flow” value [5] is given as roughly 30 % liver blood flow.
For `CCN(C(C)=O)c1cccc(-c2ccnc3c(C#N)cnn23)c1` [Zaleplon, N-[3-(3-cyanopyrazolo[1,5-a]pyrimidin-7-yl)phenyl]-N-ethylacetamide], the “AO substrate classification (reported)” value (aldehyde oxidase (AO) [4]) is given as “strong AO substrate”.
